This note sets out measurements from patent publication US11780826B2 (Amgen Inc., priority 2017, dated 2023).

This experiment deals with Bovine cardiac myofibrils. Kind of experiment: In vitro model of dose-dependent myofibril ATPase modulation (AC1.4, pyruvate kinase/lactate dehydrogenase-coupled ATPase assay at pCa25). Type of experiment: biochemical. As to conditions: concentration at which ATPase activity was 1.4-fold higher than the bottom of the dose curve, mean of a minimum of two independent tests. An outline of the steps: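 Bovine cardiac myofibrils, detergent-treated; 0.25-1.0 mg/ml. Buffer: K-PIPES 12 mM, MgCl2 2 mM, DTT 1 mM, BSA 0.1 mg/ml, pH 6.80, 22° C; Ca2+ set by EGTA/CaCl2. ATP 1 mM, NADH/PEP-coupled, A340. 4-parameter fit; n≥2.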

Molecules are shown by their SMILES.

`CN(C)S(=O)(=O)c1cccc(C(=O)N2CCC[C@@H]2C(=O)N[C@H](CO)c2ccc(Cl)c(F)c2)c1` [Example 634, N-((1S)-1-(4-chloro-3-fluorophenyl)-2-hydroxyethyl)-1-(3-(dimethylsulfamoyl)benzoyl)-D-prolinamide]: the AC1.4 came to 4.1045 µM.

On to `C[C@@H](NC(=O)[C@H]1CCCN1C(=O)c1cccc(S(=O)(=O)N2CC3(CC3)C2)c1)c1ccc(Cl)c(Cl)c1` [Example 635, 1-((3-(5-azaspiro[2.3]hex-5-ylsulfonyl)phenyl)carbonyl)-N-((1R)-1-(3,4-dichlorophenyl)ethyl)-D-prolinamide], for which the AC1.4 was 4.1355 µM. Turning to `C[C@@H](NC(=O)[C@H]1CCCN1C(=O)c1cccc(S(C)(=O)=O)c1)c1cc(F)c(Cl)cc1F` [Example 636, N-((1R)-1-(4-chloro-2,5-difluorophenyl)ethyl)-1-(3-(methylsulfonyl)benzoyl)-D-prolinamide], the AC1.4 is 3.919 µM.

For `O=C(N[C@@H](c1cc(F)c(Cl)cc1F)C1COC1)[C@H]1C[C@@H](O)CN1C(=O)c1cncc(C(F)(F)F)c1` [Example 638, (4R)-N-((R)-(4-chloro-2,5-difluorophenyl)(3-oxetanyl)methyl)-4-hydroxy-1-((5-(trifluoromethyl)-3-pyridinyl)carbonyl)-D-prolinamide], the AC1.4 turned out to be 4.1835 µM. Consider `CN1CCN(S(=O)(=O)N2CC(C#N)C2)CC1C(=O)N1CCC[C@@H]1C(=O)NCc1ccc(C(F)(F)F)cc1` (stereo partly drawn) [Example 639, (2R)-1-(4-((3-cyanoazetidin-1-yl)sulfonyl)-1-methylpiperazine-2-carbonyl)-N-(4-(trifluoromethyl)benzyl)pyrrolidine-2-carboxamide], for which the AC1.4 amounted to 4.1855 µM. The result for `CCc1ccnc(C(=O)N2[C@@H](C(=O)N[C@@H](c3cc(F)c(Cl)cc3F)C3CC3)C[C@H]3C[C@H]32)c1` [Example 640, (1R,3R,5R)-N-((R)-(4-chloro-2,5-difluorophenyl)(cyclopropyl)methyl)-2-((4-ethyl-2-pyridinyl)carbonyl)-2-azabicyclo[3.1.0]hexane-3-carboxamide] reads 4.2315 µM; that for `O=C(N[C@@H](c1cc(F)c(Cl)cc1F)C1CC1)[C@H]1C[C@@H](O)CN1C(=O)c1cncc(C(F)(F)F)c1` [Example 641, (4R)-N-((R)-(4-chloro-2,5-difluorophenyl)(cyclopropyl)methyl)-4-hydroxy-1-((5-(trifluoromethyl)-3-pyridinyl)carbonyl)-D-prolinamide], 4.262 µM. Take `Cc1ccc(F)c(CNC(=O)[C@H]2CCCN2C(=O)[C@H]2CCCN(S(=O)(=O)N3CC(C#N)C3)C2)c1` [Example 642, 1-(((3S)-1-((3-cyano-1-azetidinyl)sulfonyl)-3-piperidinyl)carbonyl)-N-(2-fluoro-5-methylbenzyl)-D-prolinamide]: the AC1.4 turned out to be 4.2755 µM.

`Cc1cccc(CNC(=O)[C@H]2CCCN2C(=O)[C@H]2CCCN(S(=O)(=O)N3CC(C#N)C3)C2)c1` [Example 643, 1-(((3S)-1-((3-cyano-1-azetidinyl)sulfonyl)-3-piperidinyl)carbonyl)-N-(3-methylbenzyl)-D-prolinamide] showed an AC1.4 of 4.3125 µM. As for `N#CC1CN(S(=O)(=O)c2cccc(C(=O)N3CCC[C@@H]3C(=O)NCc3ccc(C(F)(F)F)cn3)c2)C1` [Example 644, 1-((3-((3-cyano-1-azetidinyl)sulfonyl)phenyl)carbonyl)-N-((5-(trifluoromethyl)-2-pyridinyl)methyl)-D-prolinamide], the figure is 4.3367 µM. As for `O=C(NCc1ccc(C(F)(F)F)cc1)[C@H]1CCCN1C(=O)[C@H]1CCCN(S(=O)(=O)NC2CS(=O)(=O)C2)C1` [Example 645, 1-(((3S)-1-((l,l-dioxido-3-thietanyl)sulfamoyl)-3-piperidinyl)carbonyl)-N-(4-(trifluoromethyl)benzyl)-D-prolinamide], the figure is 4.351 µM. The result for `COc1ccc(S(C)(=O)=O)cc1C(=O)N1CCCC[C@@H]1C(=O)N[C@@H](c1ccc(C(F)(F)F)cc1F)C1CC1` [Example 646, (2R)-N-((R)-cyclopropyl(2-fluoro-4-(trifluoromethyl)phenyl)methyl)-1-(2-methoxy-5-(methylsulfonyl)benzoyl)-2-piperidinecarboxamide] reads 4.377 µM. `CC(C)(C)c1cc(C(=O)N2[C@@H](C(=O)N[C@@H](c3ccc(C(F)(F)F)cc3F)C3COC3)C[C@H]3C[C@H]32)ccn1` [Example 647, (1R,3R,5R)-N-((R)-(2-fluoro-4-(trifluoromethyl)phenyl)(3-oxetanyl)methyl)-2-((2-(2-methyl-2-propanyl)-4-pyridinyl)carbonyl)-2-azabicyclo[3.1.0]hexane-3-carboxamide] yielded an AC1.4 of 4.4125 µM. The result for `N#CC1CN(S(=O)(=O)N2CC[C@H](C(=O)N3CCC[C@@H]3C(=O)NCc3ccc(C(F)(F)F)cc3)C2)C1` [Example 648, 1-(((3S)-1-((3-cyano-1-azetidinyl)sulfonyl)-3-pyrrolidinyl)carbonyl)-N-(4-(trifluoromethyl)benzyl)-D-prolinamide] reads 4.421 µM; that for `CON(C)S(=O)(=O)c1cccc(C(=O)N2CCC[C@@H]2C(=O)NCc2ccc(C(F)(F)F)cc2)c1` [Example 649, 1-(3-(methoxy(methyl)sulfamoyl)benzoyl)-N-(4-(trifluoromethyl)benzyl)-D-prolinamide], 4.4365 µM. As for `N#CC1CN(S(=O)(=O)N2CCC[C@H](C(=O)N3CCC[C@@H]3C(=O)NCc3cc(Cl)ccc3Cl)C2)C1` [Example 651, 1-(((3S)-1-((3-cyano-1-azetidinyl)sulfonyl)-3-piperidinyl)carbonyl)-N-(2,5-dichlorobenzyl)-D-prolinamide], the figure is 4.4705 µM; as for `N#CC1CN(S(=O)(=O)N2CCC[C@H](C(=O)N3CCC[C@@H]3C(=O)NCc3ccc(F)cc3C(F)(F)F)C2)C1` [Example 652, 1-(((3S)-1-((3-cyano-1-azetidinyl)sulfonyl)-3-piperidinyl)carbonyl)-N-(4-fluoro-2-(trifluoromethyl)benzyl)-D-prolinamide], 4.5245 µM; as for `O=C(N[C@@H](c1ccc(C(F)(F)F)cc1F)C1CC1)[C@H]1CCCCN1C(=O)c1ccc2c(c1)S(=O)(=O)CC2` [Example 653, (2R)—N—((R)-cyclopropyl(2-fluoro-4-(trifluoromethyl)phenyl)methyl)-1-((1,1-dioxido-2,3-dihydro-1-benzothiophen-6-yl)carbonyl)-2-piperidinecarboxamide], 4.5245 µM. As for `O=C(NCc1ccc(C(F)(F)F)cc1)[C@H]1CCCN1C(=O)[C@H]1CCCN(S(=O)(=O)N2CC3(CCO3)C2)C1` [Example 654, (R)-1-((S)-1-(1-oxa-6-azaspiro[3.3]heptan-6-ylsulfonyl)piperidine-3-carbonyl)-N-(4-(trifluoromethyl)benzyl)pyrrolidine-2-carboxamide], the figure is 4.538 µM. For the compound `N#CC1CN(S(=O)(=O)c2cccc(C(=O)N3CCC[C@@H]3C(=O)NCc3cccc(C(F)(F)F)n3)c2)C1` [Example 655, 1-((3-((3-cyano-1-azetidinyl)sulfonyl)phenyl)carbonyl)-N-((6-(trifluoromethyl)-2-pyridinyl)methyl)-D-prolinamide], the AC1.4 was 4.5443 µM. Compound `CS(=O)(=O)c1cccc(C(=O)N2C[C@@H](C(F)F)C[C@@H]2C(=O)N[C@@H](c2ccc(C(F)(F)F)cc2F)C2CC2)c1` [Example 656, (4S)-N-((R)-cyclopropyl(2-fluoro-4-(trifluoromethyl)phenyl)methyl)-4-(difluoromethyl)-1-(3-(methylsulfonyl)benzoyl)-D-prolinamide] had an AC1.4 of 4.071 µM.

`N#CC1CN(S(=O)(=O)N2CCC[C@H](C(=O)N3CCC[C@@H]3C(=O)NC3COc4ccc(C(F)(F)F)cc43)C2)C1` (stereo partly drawn) [Example 657, (2R)-1-((S)-1-((3-cyanoazetidin-1-yl)sulfonyl)piperidine-3-carbonyl)-N-(5-(trifluoromethyl)-2,3-dihydrobenzofuran-3-yl)pyrrolidine-2-carboxamide] registered an AC1.4 of 4.572 µM. The result for `Cc1ccnc(C(=O)N2[C@@H](C(=O)N[C@@H](c3cc(F)c(C(F)(F)F)cc3F)C3CC3)C[C@H]3C[C@H]32)c1` [Example 658, (1R,3R,5R)-N-((R)-cyclopropyl(2,5-difluoro-4-(trifluoromethyl)phenyl)methyl)-2-((4-methyl-2-pyridinyl)carbonyl)-2-azabicyclo[3.1.0]hexane-3-carboxamide] reads 4.159 µM. As to `N#CC1CN(S(=O)(=O)N2CCC[C@H](C(=O)N3CCC[C@@H]3C(=O)NCc3c(F)cccc3C(F)(F)F)C2)C1` [Example 659, 1-(((3S)-1-((3-cyano-1-azetidinyl)sulfonyl)-3-piperidinyl)carbonyl)-N-(2-fluoro-6-(trifluoromethyl)benzyl)-D-prolinamide], the AC1.4 is 4.605 µM. As for `Cc1ccc(Cl)c(CNC(=O)[C@H]2CCCN2C(=O)[C@H]2CCCN(S(=O)(=O)N3CC(C#N)C3)C2)c1` [Example 660, N-(2-chloro-5-methylbenzyl)-1-(((3S)-1-((3-cyano-1-azetidinyl)sulfonyl)-3-piperidinyl)carbonyl)-D-prolinamide], the figure is 4.606 µM. The result for `CCc1ccnc(C(=O)N2[C@@H](C(=O)N[C@@H](c3cc(F)c(C(F)(F)F)cc3F)C3CC3)C[C@H]3C[C@H]32)c1` [Example 661, (1R,3R,5R)-N-((R)-cyclopropyl(2,5-difluoro-4-(trifluoromethyl)phenyl)methyl)-2-((4-ethyl-2-pyridinyl)carbonyl)-2-azabicyclo[3.1.0]hexane-3-carboxamide] reads 4.1595 µM.

`CS(=O)(=O)c1cncc(C(=O)N2CCC[C@@H]2C(=O)N[C@@H](c2ccc(C(F)(F)F)cc2F)C2CC2)c1` [Example 662, N-((R)-cyclopropyl(2-fluoro-4-(trifluoromethyl)phenyl)methyl)-1-((5-(methylsulfonyl)-3-pyridinyl)carbonyl)-D-prolinamide] displayed an AC1.4 of 4.4365 µM.
